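Where inhibition never reached the appropriate level, the endpoint shown equals the highest concentration tested. Otherwise, values were interpolated linearly from a five-concentration, 48-hour dose response in 96-well plates. At the GI50, growth is halved.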 Activity calls are given as the source filed them. Cut-off read from the data, not from the text of the source: active = GI50 up to about 1.1 µM and inactive = higher.
What was measured:
Assay in all cases: DTP human tumour cell line panel, 48 h
[1] = system: 786-0
[2] = system: NCI/ADR-RES
[3] = system: Hs-578T
[4] = system: A549
[5] = system: MOLT-4
[6] = system: UACC-257
[7] = system: SN12C
[8] = system: KM12
[9] = system: HCT-15
[10] = system: SK-MEL-5
[11] = system: Malme-3M
[12] = system: BT-549
[13] = system: MCF7
[14] = system: HT-29
[15] = system: SW-620
[16] = system: RPMI-8226
[17] = system: U-251
[18] = system: PC-3
[19] = system: HCC 2998
[20] = system: SK-MEL-2

Structure (SMILES) | GI50 [1] | GI50 [2] | GI50 [3] | GI50 [4] | GI50 [5] | GI50 [6] | GI50 [7] | GI50 [8] | GI50 [9] [µM] | GI50 [10] | GI50 [11] | GI50 [12] | GI50 [13] | GI50 [14] | GI50 [15] | GI50 [16] | GI50 [17] | GI50 [18] | GI50 [19] | GI50 [20]
Clc1nc(Cl)c(-c2ccccc2)c(Cl)n1 | 2.5 µM (inactive) | 3.42 µM (inactive) | 3.83 µM (inactive) | 17.1 µM (inactive) | 2.96 µM (inactive) | 2.82 µM (inactive) | 3.14 µM (inactive) | 4.68 µM (inactive) | 2.42 | 3.18 µM (inactive) | 2.02 µM (inactive) | 2.61 µM (inactive) | 3.04 µM (inactive) | 7.66 µM (inactive) | 2.26 µM (inactive) | 2.69 µM (inactive) | 5.32 µM (inactive) | – | – | –
O=C1CN(c2ccccc2)C(=O)CN1NCNN1CC(=O)N(c2ccccc2)CC1=O | > 100 µM (inactive) | – | > 100 µM (inactive) | > 100 µM (inactive) | > 100 µM (inactive) | > 100 µM (inactive) | > 100 µM (inactive) | > 100 µM (inactive) | > 100 | > 100 µM (inactive) | > 100 µM (inactive) | > 100 µM (inactive) | > 100 µM (inactive) | > 100 µM (inactive) | > 100 µM (inactive) | > 100 µM (inactive) | > 100 µM (inactive) | > 100 µM (inactive) | > 100 µM (inactive) | –
Cc1c(-c2ccccc2)nn2cc(-c3ccccc3)nnc12 | 17.2 µM (inactive) | 39.1 µM (inactive) | 25.2 µM (inactive) | 17.5 µM (inactive) | 35.5 µM (inactive) | 23.4 µM (inactive) | 37.9 µM (inactive) | 29 µM (inactive) | 14.7 | 16.3 µM (inactive) | 13.3 µM (inactive) | 25.2 µM (inactive) | – | 24.2 µM (inactive) | 23 µM (inactive) | 35.5 µM (inactive) | 19.2 µM (inactive) | 19.6 µM (inactive) | 15.5 µM (inactive) | 15.1 µM (inactive)
O=[N+]([O-])c1ccc(C2CC(c3ccccc3Cl)=Nc3ccccc3[S+]2[O-])cc1 (stereo unspecified) | 1.8 µM (inactive) | – | 2.75 µM (inactive) | 9.64 µM (inactive) | 1.9 µM (inactive) | 15.8 µM (inactive) | 2.26 µM (inactive) | 3.82 µM (inactive) | 2.21 | 5.41 µM (inactive) | 9.91 µM (inactive) | 13.7 µM (inactive) | 2.34 µM (inactive) | 2.5 µM (inactive) | 1.98 µM (inactive) | 1.77 µM (inactive) | 3.05 µM (inactive) | 4.67 µM (inactive) | 2.92 µM (inactive) | 15 µM (inactive)
Cc1nc(N)sc1/N=N/c1ccccc1Br | 36.6 µM (inactive) | 39.4 µM (inactive) | – | > 53.7 µM (inactive) | > 52.2 µM (inactive) | 32.9 µM (inactive) | 34.8 µM (inactive) | 33.5 µM (inactive) | 33.7 | 31.3 µM (inactive) | 26.2 µM (inactive) | 24.7 µM (inactive) | 35.4 µM (inactive) | 35.9 µM (inactive) | > 53.1 µM (inactive) | 65.3 µM (inactive) | 31 µM (inactive) | 33.3 µM (inactive) | 8.87 µM (inactive) | 34 µM (inactive)
Cc1cc(C)c2nccc(NCCCN(C)C)c2c1[N+](=O)[O-] | 36.2 µM (inactive) | – | 34 µM (inactive) | 30.8 µM (inactive) | 39.6 µM (inactive) | 17.1 µM (inactive) | 40.9 µM (inactive) | 31.4 µM (inactive) | 15 | 13.5 µM (inactive) | 19.3 µM (inactive) | 35.5 µM (inactive) | 30.5 µM (inactive) | 18.7 µM (inactive) | 26.9 µM (inactive) | 34.6 µM (inactive) | 52.5 µM (inactive) | 20.6 µM (inactive) | 22.8 µM (inactive) | 23.8 µM (inactive)

Reference: ChEMBL document CHEMBL1201862, “PubChem BioAssay data set” (2004)
